Where two headings read alike, the source gives them in different places.
Key:
human GABAA α1β2γ2 = test system: T1, human GABAA α1β2γ2; experiment: Two-electrode voltage clamp in Xenopus oocytes, current induced by EC10 of GABA; assay type: cell-based; conditions: 3000 nM
T1 construct: expressed in transfected cells; host or cells: Xenopus laevis oocytes, cRNA injection
Method: (§1) Freshly prepared oocytes of maturation stage VI were bought from Ecocyte Bioscience (Castrop-Rauxel, Germany) and, after overnight delivery, plated into 96-well plates (Greiner no. 651101) for microinjection on a ROBOOCYTE R16 system (Multichannel Systems MCS GmbH, Reutlingen, Germany). Each oocyte was injected with roughly 50 nL of RNA solution. The solution for expressing receptors composed of the human α1, β2 and γ2 subunits contained 3 pg/nL of α1 and β2 RNA and 15 pg/nL of γ2 RNA. The solution for expressing human α2β3γ2 receptors contained 2.5 pg/nL of α2 and β3 RNA, 5 pg/nL of γ2 RNA and 10 pg/nL of GABARAP RNA. The solution for expressing human α3β3γ2 receptors contained 1.3 pg/nL of α3 and β3 RNA and 6.5 pg/nL of γ2 RNA. The solution for expressing human α5β3γ2 receptors contained 1.3 pg/nL of α5 and β3 RNA and 13 pg/nL of γ2 RNA. GABARAP was added to the α2β3γ2 subunit mixture since the expression of γ2 would be low otherwise, as indicated by a weak effect of β-CCM[60]. After the microinjection the oocytes were kept at 20 °C temperature until the electrophysiological experiment. Experiments were done 3 to 5 days later on the ROBOOCYTE instrument which employs the two-microelectrode voltage-clamp technique for membrane voltage control and current measurement. […] During current recording and compound testing the cell membrane was constantly clamped to − 80 mV. Current signals were recorded and stored on a PC-type computer using the ROBOOCYTE software.
(§2) During the microinjection and up to the electrophysiological experiment the oocytes were kept in a solution containing 88 mM NaCl, 1 mM KCl, 2.5 mM NaHCO3, 10 mM HEPES (AppliChem GmbH, Darmstadt, Germany), 0.82 MgSO4, 0.33 mM Ca(NO3)2, 0.33 mM CaCl2, 100 U/mL penicillin (GIBCO, ThermoFisher Scientific) and 100 µg/mL streptomycine (GIBCO, ThermoFisher Scientific). The pH was adjusted to 7.5. During the experiment the voltage-clamped oocyte was constantly superfused by a solution containing 90 mM NaCl, 1 mM KCl, 5 mM HEPES (AppliChem), 1 mM MgCl2 and 1 mM CaCl2 (pH 7.4). GABA and test compounds were added to this solution. GABA concentrations were chosen according to previously determined concentration–response relations for the different human GABAA receptor subunit combinations. Concentrations evoking approximately 10% of a maximal response were selected, i.e., 8 µM for α1β2γ2, 6 µM for α2β3γ2, 10 µM for α3β3γ2 and 5 µM for α5β3γ2. Solutions containing GABA or test compounds were freshly prepared at least every second day. […] Compounds were further diluted in DMSO and finally in extracellular saline to reach a DMSO concentration of 0.1%. The same amount of DMSO was added to the control solutions without test compounds. […]

human GABAA α2β3γ2 = test system: T2, human GABAA α2β3γ2; experiment: as above; assay type: cell-based; conditions: 3000 nM
T2 construct: expressed in transfected cells; host or cells: Xenopus laevis oocytes, cRNA injection
Method: as §1, §2

human GABAA α3β3γ2 = test system: T3, human GABAA α3β3γ2; experiment: as above; assay type: cell-based; conditions: 3000 nM
T3 construct: expressed in transfected cells; host or cells: Xenopus laevis oocytes, cRNA injection
Method: as §1, §2

Dopamine D1 = test system: T4, Dopamine D1; experiment: Cerep binding; parameters: species or system human; conditions: 10 μM; [3H]SCH 23390; hum. recomb. (CHO)
T4 construct: host or cells: CHO

Dopamine D3 = test system: T5, Dopamine D3; experiment: Cerep binding; parameters: species or system human; conditions: 10 μM; [3H]spiperone; hum. recomb. (CHO)
T5 construct: host or cells: CHO

Melatonin MT1 (ML1A) = test system: T6, Melatonin MT1 (ML1A); experiment: Cerep binding; parameters: species or system human; conditions: 10 μM; [125I]2-iodomelatonin; hum. recomb. (CHO)
T6 construct: host or cells: CHO

[1] = test system: T7, Prostanoid TP (TXA2/PGH2); experiment: Cerep binding; parameters: species or system human; conditions: 10 μM; [3H]SQ 29548; hum. recomb. (HEK-293)
T7 construct: host or cells: HEK-293

Serotonin 5-HT5a = test system: T8, Serotonin 5-HT5a; experiment: Cerep binding; parameters: species or system human; conditions: 10 μM; [3H]LSD; hum. recomb. (CHO)
T8 construct: purchased Eurofins Cerep

Galanin 1 = test system: T9, Galanin 1; experiment: Cerep binding; parameters: species or system human; conditions: 10 μM; [125I]galanin; hum. recomb. (HEK-293)
T9 construct: purchased Eurofins Cerep

[2] = test system: Platelet derived growth factor (PDGF); experiment: Cerep binding; conditions: 10 μM; [125I]PDGF BB; mouse, Balb/c 3T3 cells
Neuropeptide Y1 = test system: T10, Neuropeptide Y1; experiment: Cerep binding; parameters: species or system human; conditions: 10 μM; [125I]peptide YY; hum., SK-N-MC cells
T10 construct: purchased Eurofins Cerep

Neurotensin NTS1 (NT1) = test system: T11, Neurotensin NTS1 (NT1); experiment: Cerep binding; parameters: species or system human; conditions: 10 μM; [125I]Tyr3-neurotensin; hum. recomb. (CHO)
T11 construct: host or cells: CHO

GABAA-α5 receptors = biological target: T12, GABAA-α5 receptors (Rattus norvegicus, UniProt P18508+P19969); experiment: In vivo [3H]-Ro 15-4513 binding with ex vivo autoradiography (receptor occupancy); conditions: hippocampus, Hill fit
T12 construct: from tissue; host or cells: rat brain (hippocampus), in vivo with ex vivo autoradiography
T12 sequence (P19969 32-464 limits assumed): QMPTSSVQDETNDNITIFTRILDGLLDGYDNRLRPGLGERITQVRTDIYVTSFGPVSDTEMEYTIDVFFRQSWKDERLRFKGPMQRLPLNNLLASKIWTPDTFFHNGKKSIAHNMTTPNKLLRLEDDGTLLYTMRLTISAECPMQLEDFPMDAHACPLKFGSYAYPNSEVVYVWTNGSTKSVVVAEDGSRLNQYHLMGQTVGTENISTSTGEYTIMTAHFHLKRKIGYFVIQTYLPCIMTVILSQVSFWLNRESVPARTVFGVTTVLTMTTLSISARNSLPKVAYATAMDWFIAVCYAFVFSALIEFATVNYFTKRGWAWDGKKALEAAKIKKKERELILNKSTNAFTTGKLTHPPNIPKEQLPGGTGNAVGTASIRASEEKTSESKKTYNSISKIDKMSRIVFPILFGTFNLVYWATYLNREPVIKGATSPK
T12 sequence (P18508 39-466): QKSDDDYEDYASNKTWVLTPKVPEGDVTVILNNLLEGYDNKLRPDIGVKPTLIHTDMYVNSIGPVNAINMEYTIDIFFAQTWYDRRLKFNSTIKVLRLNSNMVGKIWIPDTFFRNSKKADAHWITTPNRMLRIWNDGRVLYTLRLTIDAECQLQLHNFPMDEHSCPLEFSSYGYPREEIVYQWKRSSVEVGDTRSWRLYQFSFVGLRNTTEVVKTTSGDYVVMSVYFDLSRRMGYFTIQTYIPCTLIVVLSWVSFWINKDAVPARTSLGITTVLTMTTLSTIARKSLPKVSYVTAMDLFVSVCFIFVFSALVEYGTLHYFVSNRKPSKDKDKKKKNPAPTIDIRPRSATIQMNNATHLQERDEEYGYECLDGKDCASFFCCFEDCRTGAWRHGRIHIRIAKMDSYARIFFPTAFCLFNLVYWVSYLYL
T12 sequence (P63079 26-473 partner): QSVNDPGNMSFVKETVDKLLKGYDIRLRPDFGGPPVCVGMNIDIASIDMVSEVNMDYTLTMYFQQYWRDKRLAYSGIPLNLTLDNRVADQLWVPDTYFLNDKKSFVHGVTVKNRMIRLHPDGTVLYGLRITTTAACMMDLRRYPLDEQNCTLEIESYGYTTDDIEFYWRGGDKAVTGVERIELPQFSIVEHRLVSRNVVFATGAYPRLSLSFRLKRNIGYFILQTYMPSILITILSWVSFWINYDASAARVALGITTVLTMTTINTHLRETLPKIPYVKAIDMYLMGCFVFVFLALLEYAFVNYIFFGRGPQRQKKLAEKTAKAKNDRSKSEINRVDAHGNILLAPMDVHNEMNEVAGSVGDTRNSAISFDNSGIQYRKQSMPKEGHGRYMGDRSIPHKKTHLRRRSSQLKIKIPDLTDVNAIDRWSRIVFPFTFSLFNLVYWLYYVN
Method: Brains and blood were collected from each animal. Brains were divided in two halves along their sagittal axis and frozen in dry ice. […] Half of the brain was used for autoradiography, as described earlier. […] The percentage of receptor occupancy (y) was calculated from: y=1001-Sbasmisanil/Svehicle.
The curve was fitted to the experimental results using the Hill equation (Eq. (1) with Hill coefficient D = 1).

Cc1onc(-c2ccc(F)cc2)c1COc1ccc(C(=O)N2CCS(=O)(=O)CC2)cn1 [basmisanil]
inhibition (human GABAA α1β2γ2): < 10%
inhibition (human GABAA α2β3γ2): < 10%
inhibition (human GABAA α3β3γ2): < 10%
% Inhibition (Dopamine D1): 0%
% Inhibition (Dopamine D3): 3%
% Inhibition (Melatonin MT1 (ML1A)): 14%
% Inhibition [1]: 5%
% Inhibition (Serotonin 5-HT5a): 5%
% Inhibition (Galanin 1): 0%
% Inhibition [2]: -17%
% Inhibition (Neuropeptide Y1): 0%
% Inhibition (Neurotensin NTS1 (NT1)): -6%
EC50 (GABAA-α5 receptors; free plasma, read-out: free plasma concentration for half-maximal receptor occupancy (EC50)): 171 ± 16 nM
EC50 (GABAA-α5 receptors; total plasma, read-out: plasma level for half-maximal receptor occupancy (EC50) (converted)): 1220 nM

From paper PMC8032764 (Scientific Reports, 2021)
